Patent US10899738B2 (THE REGENTS OF THE UNIVERSITY OF MICHIGAN, priority 2016, dated 2021)

Biological target: menin protein (Homo sapiens (Human), UniProt O00255)
Assay: biochemical
Assay type: binding
Conditions: FP competitive binding; menin protein 4 nM, FAM-MM2 probe 2 nM; read-out: Menin Binding Affinity IC50
In short: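 Competitive fluorescence polarization assay using FAM-labelled MLL1 peptide probe FAM-MM2 (2 nM final) preincubated with menin (4 nM final) in PBS with 0.02% bovine γ-globulin, 4% DMSO and 0.01% Triton X-100. Compounds were added and incubated 30 min at room temperature. IC50 came from nonlinear regression of competition curves, with Ki also derived.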

Chain of menin protein (O00255 whole entry): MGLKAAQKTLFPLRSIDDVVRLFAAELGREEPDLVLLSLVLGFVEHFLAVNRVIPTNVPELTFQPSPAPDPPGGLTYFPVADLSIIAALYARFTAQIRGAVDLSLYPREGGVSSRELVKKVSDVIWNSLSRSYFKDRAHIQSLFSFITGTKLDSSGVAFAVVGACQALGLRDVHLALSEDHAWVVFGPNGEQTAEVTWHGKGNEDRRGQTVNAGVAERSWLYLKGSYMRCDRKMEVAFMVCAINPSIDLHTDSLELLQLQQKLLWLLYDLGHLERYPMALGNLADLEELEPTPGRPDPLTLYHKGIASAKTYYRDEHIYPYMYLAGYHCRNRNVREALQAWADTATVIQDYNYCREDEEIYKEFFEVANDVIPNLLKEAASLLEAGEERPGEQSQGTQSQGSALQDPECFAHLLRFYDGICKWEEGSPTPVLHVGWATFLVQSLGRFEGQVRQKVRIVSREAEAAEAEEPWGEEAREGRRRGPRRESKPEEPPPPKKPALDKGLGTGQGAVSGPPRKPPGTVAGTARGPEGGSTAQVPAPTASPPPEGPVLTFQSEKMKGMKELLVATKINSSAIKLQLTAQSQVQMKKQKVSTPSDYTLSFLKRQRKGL

Row | Compound | IC50
1 | CN1COCN([C@@H]2CCC[C@H]2C(C#N)(c2ccccc2)C2CCN(CC3CN(c4ccc(S(=O)(=O)c5ccncc5)cc4)C3)CC2)C1=O (mixture of isomers) [compound 280, rac-2-((1S,2R)-2-(5-methyl-4-oxo-1,3,5-oxadiazinan-3-yl)cyclopentyl)-2-phenyl-2-(1-((1-(4-(pyridin-4-ylsulfonyl)phenyl)azetidin-3-yl)methyl)piperidin-4-yl)acetonitrile] | 1.4 µM
2 | CC(=O)N[C@@H]1CCC[C@H]1C(C#N)(c1ccccc1)C1CCN(CC2CN(c3ccc(S(=O)(=O)C4CC4)cc3)C2)CC1 (mixture of isomers) [compound 282, rac-N-((1R,2S)-2-(cyano(1-((1-(4-(cyclopropylsulfonyl)phenyl)azetidin-3-yl)methyl)piperidin-4-yl)(phenyl)methyl)cyclopentyl) acetamide] | 3.3 µM
3 | CC(=O)N[C@@H]1CCC[C@H]1C1(C2CCN(CC3CN(c4ccc(S(=O)(=O)c5cnn(C)c5)cc4)C3)CC2)CNCc2ccccc21 (mixture of isomers) [compound 287, rac-N-((1R,2S)-2-(4-(1-((1-(4-((1-methyl-1H-pyrazol-4-yl)sulfonyl)phenyl)azetidin-3-yl)methyl)piperidin-4-yl)-1,2,3,4-tetrahydroisoquinolin-4-yl)cyclopentyl)acetamide] | 0.247 µM
4 | CC(=O)O[C@H]1CCC[C@@H]1C(C#N)(c1ccccc1F)C1CCN(CCCOc2ccc(C#N)cc2)CC1 (mixture of isomers) [compound 308, rac-(1S,2R)-2-(cyano(1-(3-(4-cyanophenoxy)propyl)piperidin-4-yl)(2-fluorophenyl)methyl)cyclopentyl acetate] | 0.066 µM
5 | CC(=O)O[C@@H]1CCC[C@H]1C(C#N)(c1ccccc1F)C1CCN(CCCOc2ccc(C#N)cc2)CC1 (mixture of isomers) [compound 309, rac-(1R,2S)-2-(cyano(1-(3-(4-cyanophenoxy)propyl)piperidin-4-yl)(2-fluorophenyl)methyl) cyclopentyl acetate] | 11.4 µM
6 | CC(=O)O[C@H]1CCC[C@@H]1C(C#N)(c1ccccc1F)C1CCN(CC2CN(c3ccc(S(=O)(=O)C4CC4)cc3)C2)CC1 (mixture of isomers) [compound 310, rac-(1S,2R)-2-(cyano(1-((1-(4-(cyclopropylsulfonyl)phenyl)azetidin-3-yl)methyl)piperidin-4-yl)(2-fluorophenyl)methyl) cyclopentyl acetate] | 0.045 µM
7 | CC(=O)O[C@@H]1CCC[C@H]1C(C#N)(c1ccccc1F)C1CCN(CC2CN(c3ccc(S(=O)(=O)C4CC4)cc3)C2)CC1 (mixture of isomers) [compound 311, rac-(1R,2S)-2-(cyano(1-((1-(4-(cyclopropylsulfonyl)phenyl)azetidin-3-yl)methyl)piperidin-4-yl)(2-fluorophenyl)methyl) cyclopentyl acetate] | 5.7 µM
8 | CC(=O)O[C@H]1CCC[C@@H]1C(C#N)(c1cccc(F)c1)C1CCN(CC2CN(c3ccc(S(=O)(=O)c4ccccc4)cc3)C2)CC1 (mixture of isomers) [compound 312, rac-(1S,2R)-2-(cyano(3-fluorophenyl)(1-((1-(4-(phenylsulfonyl)phenyl)azetidin-3-yl)methyl)piperidin-4-yl)methyl)cyclopentyl acetate] | 0.013 µM
9 | CC(=O)O[C@@H]1CCC[C@H]1C(C#N)(c1cccc(F)c1)C1CCN(CC2CN(c3ccc(S(=O)(=O)c4ccccc4)cc3)C2)CC1 (mixture of isomers) [compound 313, rac-(1R,2S)-2-(cyano(3-fluorophenyl)(1-((1-(4-(phenylsulfonyl)phenyl)azetidin-3-yl)methyl)piperidin-4-yl)methyl)cyclopentyl acetate] | 13.8 µM
10 | CC(=O)O[C@@H]1CCC[C@H]1C1(C2CCN(CCCOc3ccc(C#N)cc3)CC2)CN(C)Cc2ccc(F)cc21 (mixture of isomers) [compound 315, rac-(1R,2S)-2-(4-(1-(3-(4-cyanophenoxy)propyl)piperidin-4-yl)-6-fluoro-2-methyl-1,2,3,4-tetrahydroisoquinolin-4-yl)cyclopentyl acetate] | 0.131 µM
11 | CC(=O)O[C@@H]1CCC[C@H]1C1(C2CCN(CC3CN(c4ccc(S(=O)(=O)C5CC5)cc4)C3)CC2)CN(C)Cc2ccc(F)cc21 (mixture of isomers) [compound 317, rac-(1R,2S)-2-(4-(1-((1-(4-(cyclopropylsulfonyl)phenyl)azetidin-3-yl)methyl)piperidin-4-yl)-6-fluoro-2-methyl-1,2,3,4-tetrahydroisoquinolin-4-yl)cyclopentyl acetate] | 0.161 µM
12 | CNC(=O)N[C@@H]1CCC[C@H]1C(C#N)(c1ccccc1)C1CCN(CCCOc2ccc(C#N)cc2)CC1 (mixture of isomers) [compound 318, rac-1-((1R,2S)-2-(cyano(1-(3-(4-cyanophenoxy)propyl)piperidin-4-yl)(phenyl)methyl)cyclopentyl)-3-methylurea] | 20.9 µM
13 | COC(=O)N[C@@H]1CCC[C@H]1C(C#N)(c1ccccc1)C1CCN(CC2CN(c3ccc(S(=O)(=O)C4CC4)cc3)C2)CC1 (mixture of isomers) [compound 320, rac-methyl ((1R,2S)-2-(cyano(1-((1-(4-(cyclopropylsulfonyl)phenyl)azetidin-3-yl)methyl)piperidin-4-yl)(phenyl)methyl)cyclopentyl)carbamate] | 5.1 µM
14 | CNC(=O)N[C@@H]1CCC[C@H]1C(CN)(c1ccccc1)C1CCN(CC2CN(c3ccc(S(=O)(=O)c4ccccc4)cc3)C2)CC1 (mixture of isomers) [compound 322, rac-1-((1R,2S)-2-(2-amino-1-phenyl-1-(1-((1-(4-(phenylsulfonyl)phenyl)azetidin-3-yl)methyl)piperidin-4-yl)ethyl)cyclopentyl)-3-methylurea] | 0.108 µM
15 | COC(=O)N1Cc2ccccc2C(C2CCN(CCCOc3ccc(C#N)cc3)CC2)([C@@H]2CCC[C@H]2OC)C1 (mixture of isomers) [compound 323, methyl rac-4-(1-(3-(4-cyanophenoxy)propyl)piperidin-4-yl)-4-((1S,2R)-2-methoxycyclopentyl)-3,4-dihydroisoquinoline-2(1H)-carboxylate] | 10.4 µM
16 | COC(=O)N1Cc2ccccc2C(C2CCN(CCCOc3ccc(C#N)cc3)CC2)([C@H]2CCC[C@@H]2OC)C1 (mixture of isomers) [compound 324, methyl rac-4-(1-(3-(4-cyanophenoxy)propyl)piperidin-4-yl)-4-((1R,2S)-2-methoxycyclopentyl)-3,4-dihydroisoquinoline-2(1H)-carboxylate] | 9.6 µM
17 | CO[C@H]1CCC[C@@H]1C1(C2CCN(CCCOc3ccc(C#N)cc3)CC2)CN(C)Cc2ccccc21 (mixture of isomers) [compound 325, rac-4-(3-(4-(4-((1R,2S)-2-methoxycyclopentyl)-2-methyl-1,2,3,4-tetrahydroisoquinolin-4-yl)piperidin-1-yl)propoxy)benzonitrile] | 1.8 µM
18 | CO[C@@H]1CCC[C@H]1C1(C2CCN(CCCOc3ccc(C#N)cc3)CC2)CN(C)Cc2ccccc21 (mixture of isomers) [compound 326, rac-4-(3-(4-(4-((1S,2R)-2-methoxycyclopentyl)-2-methyl-1,2,3,4-tetrahydroisoquinolin-4-yl)piperidin-1-yl)propoxy)benzonitrile] | 2.7 µM
19 | CO[C@@H]1CCC[C@H]1C1(C2CCN(CCCOc3ccc(C(=O)O)cc3)CC2)CNCc2ccccc21 (mixture of isomers) [compound 327, rac-4-(3-(4-(4-((1S,2R)-2-methoxycyclopentyl)-1,2,3,4-tetrahydroisoquinolin-4-yl)piperidin-1-yl)propoxy)benzoic acid] | 485 µM
20 | CO[C@H]1CCC[C@@H]1C1(C2CCN(CCCOc3ccc(C(=O)O)cc3)CC2)CNCc2ccccc21 (mixture of isomers) [compound 328, rac-4-(3-(4-(4-((1R,2S)-2-methoxycyclopentyl)-1,2,3,4-tetrahydroisoquinolin-4-yl)piperidin-1-yl)propoxy)benzoic acid] | 119 µM
21 | COC(=O)[C@H]1CCC[C@@H]1C(C#N)(c1ccccc1)C1CCN(CC2CN(c3ccc(S(=O)(=O)C4CC4)cc3)C2)CC1 (mixture of isomers) [compound 332, methyl rac-(1S,2S)-2-(cyano(1-((1-(4-(cyclopropylsulfonyl)phenyl)azetidin-3-yl)methyl)piperidin-4-yl)(phenyl)methyl)cyclopentane-1-carboxylate] | 0.261 µM
22 | COC(=O)[C@@H]1CCC[C@H]1C(C#N)(c1ccccc1)C1CCN(CC2CN(c3ccc(S(=O)(=O)C4CC4)cc3)C2)CC1 (mixture of isomers) [compound 333, methyl rac-(1R,2R)-2-(cyano(1-((1-(4-(cyclopropylsulfonyl)phenyl)azetidin-3-yl)(phenyl)methyl)cyclopentane-1-carboxylate] | 5.1 µM
23 | CNC(=O)[C@H]1CCC[C@@H]1C(C#N)(c1ccccc1)C1CCN(CC2CN(c3ccc(S(=O)(=O)C4CC4)cc3)C2)CC1 (mixture of isomers) [compound 334, rac-(1S,2S)-2-(cyano(1-((1-(4-(cyclopropylsulfonyl)phenyl)azetidin-3-yl)methyl)piperidin-4-yl)(phenyl)methyl)-N-methylcyclopentane-1-carboxylate] | 3.2 µM
24 | CCNC(=O)[C@H]1CCC[C@@H]1C(C#N)(c1ccccc1)C1CCN(CC2CN(c3ccc(S(=O)(=O)C4CC4)cc3)C2)CC1 (mixture of isomers) [compound 335, rac-(1S,2S)-2-(cyano(1-((1-(4-(cyclopropylsulfonyl)phenyl)azetidin-3-yl)methyl)piperidin-4-yl)(phenyl)methyl)-N-ethylcyclopentane-1-carboxamide] | 5.6 µM
25 | COCC[C@H]1CCC[C@@H]1C(C#N)(c1ccccc1)C1CCN(CC2CN(c3ccc(S(=O)(=O)c4ccnc(C)c4)cc3)C2)CC1 (mixture of isomers) [compound 336, rac-2-((1S,2R)-2-(2-methoxyethyl)cyclopentyl)-2-(1-((1-(4-((2-methylpyridin-4-yl)sulfonyl)phenyl)azetidin-3-yl)methyl)piperidin-4-yl)-2-phenylacetonitrile] | 29.4 µM
